Test results from PubChem BioAssay AID602211 (Sanford-Burnham Center for Chemical Genomics, 2012).
Active and inactive are the calls of the source.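 The calls were made as follows: active = mean IC50 at or below 10 µM; inactive = the rest.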

What follows are compounds tested on H9c2 cardiomyocytes, H2O2 protection, ATPLite viability, 2 h (assay: H2O2-induced H9c2 cell death suppression – ATPLite luminescence, set 2, dose response (AID 602211);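 also: potency is for protection so actives keep ATP signal up against peroxide killing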).
`CCOc1ccc2nc(NC(=O)CN3CCC(n4nnc5cc(F)ccc54)CC3)sc2c1` was tested, and the IC50 was 2.37 µM.
In the case of `COc1ccc(COc2cc(-c3cccc(OC)c3)nc3ccc(NC(=O)c4ccc(OC)cc4)cc23)cc1`, the IC50 is reported as 2.42 µM.
For `Cc1ccc2nc(-c3ccccc3)cc(C(=O)NNC(=O)c3csc(N4CCOCC4)n3)c2c1`, the IC50 was 15 µM (inactive).
With `COc1ccc(NC(=O)c2cc(-c3ccccn3)nc3ccccc23)cc1S(=O)(=O)N(C)C` the IC50 was 2.46 µM.
In the case of `O=C(Nc1nc(-c2cc(F)ccc2F)cs1)C1=NN(c2ccccc2)C(=O)CC1`, the IC50 is reported as 6.26 µM.
`COc1cc(C(=O)NCC(=O)N/N=C/c2ccc(-c3cccc([N+](=O)[O-])c3)o2)cc(OC)c1OC` showed an IC50 of 9.76 µM.
Work on `CCOC(=O)C1CCN(c2cc3c(cc2NC(=O)c2ccccc2Cl)n(C)c(=O)n3C)CC1` yielded an IC50 of 5.6 µM.
In the case of `CC(=O)c1cccc(-c2cnc3c(NC=O)cc(-c4cccc(C(=O)N(C)C)c4)cn23)c1`, the IC50 is reported as 14.9 µM (inactive).
With `COc1ccccc1NC(=O)CSc1ccc2nnc(-c3ccc(C)cc3)n2n1` the IC50 was 3.16 µM.
With `COc1ccc(-c2ccc3c(c2)S(=O)(=O)c2cccc(C(=O)NC[C@@H]4CCCO4)c2C3=O)cc1OC` the IC50 was 4.98 µM.
In the case of `COc1ccc(CN(C)C(=O)C(Cc2ccccc2)NC(=O)c2ccccc2)cc1F` (configuration not stated), the IC50 is reported as 2.67 µM.
With `CC(=NO)C1CCC2C3CCC4CC(=NO)CCC4(C)C3C(C)(O)CC12C` (configuration not stated) the IC50 was > 79 µM (inactive).
Work on `O=C(NC1CCCCC1)C(c1ccc2ncccc2c1)N(Cc1ccccc1)C(=O)c1ccc2c(c1)OCCO2` (configuration not stated) yielded an IC50 of 5.54 µM.
For `COc1cc(/C=C(\C#N)C(=O)Nc2ccccc2F)ccc1OCCN1CCOCC1`, the IC50 was 15.9 µM (inactive).
Compound `COCCn1nnnc1CN(CCc1ccccc1)Cc1cc2cc(OC)ccc2[nH]c1=O` has an IC50 of 5.12 µM.
`CCOC(=O)C1=C(C)N=c2s/c(=C\c3ccncc3)c(=O)n2C1c1ccc2c(c1)OCO2` (configuration not stated) gave an IC50 of 8.34 µM.
`O=C(NCc1ccco1)C(c1ccccc1)N(C(=O)Cc1cccs1)c1ccccc1F` (configuration not stated) gave an IC50 of 3.52 µM.
For `Cc1cccc(NC(=O)c2cc(-c3ccco3)nc3ccccc23)n1`, the IC50 was 8.15 µM.
In the case of `COCCCNC(=O)/C(C#N)=C1\N=C(NC(=O)c2cccs2)c2ccccc21`, the IC50 is reported as > 79 µM (inactive).
`NC(=O)c1ccc(Nc2nnc(-c3ccc(O)cc3)c3ccccc23)cc1` was tested, and the IC50 was 14.7 µM (inactive).
In the case of `Cc1ccc(C(C(=O)NCc2ccccc2)N(Cc2ccco2)C(=O)c2snc(C(N)=O)c2N)o1` (configuration not stated), the IC50 is reported as 1.8 µM.
`COc1cccc(-c2nn(-c3ccccc3)cc2C(=O)Nc2nccs2)c1` was tested, and the IC50 was 12.8 µM (inactive).
With `CC1Cc2ccccc2N1C(=O)c1cc2c(=O)n3ccccc3nc2n1C` (configuration not stated) the IC50 was > 79 µM (inactive).
With `COc1cccc(-c2cnc3c(NC(C)=O)cc(-c4cc(OC)c(OC)c(OC)c4)cn23)c1` the IC50 was 3.27 µM.
In the case of `COC(=O)c1ccc(C(NC(=O)OCc2ccccc2)/C(C)=C/[C@@H](C)C(=O)NCc2ccc(OC)c(OC)c2)cc1` (some centres not stated), the IC50 is reported as > 79 µM (inactive).
With `COCCn1cnc2c(c1=O)c1nc3ccccc3nc1n2/N=C/c1cccc(OC)c1` the IC50 was 13.6 µM (inactive).
Work on `c1ccc(N2CCOCC2)c(Nc2nc3ccccc3n3cnnc23)c1` yielded an IC50 of 5.28 µM.
`COCCn1ccc2c(OCC(=O)Nc3ccccc3OC)cccc2c1=O` was tested, and the IC50 was > 79 µM (inactive).
`Cc1ccccc1NP(=O)(Oc1ccccc1F)Oc1ccccc1F` was tested, and the IC50 was > 79 µM (inactive).
`CC1Nc2ncnc(N3CCN(c4ccccc4)CC3)c2N(Cc2ccc(Cl)cc2)C1=O` (configuration not stated) was tested, and the IC50 was 5.41 µM.
`COc1ccc(C(=O)Nc2cc(C)nn2-c2nc3ccccc3[nH]2)c(OC)c1` was tested, and the IC50 was 10.9 µM (inactive).
For `O=C(c1cc2nc(-c3ccccc3)cc(-c3ccccc3)n2n1)N1CCN(C(=O)c2ccco2)CC1`, the IC50 was 1.25 µM.
In the case of `CCN(CC)C(=O)c1ccc2c3c(cccc13)C(=O)N(CCc1ccc(OC)c(OC)c1)C2=O`, the IC50 is reported as > 79 µM (inactive).
With `NC(=O)c1nsc(C(=O)N(CCc2ccccc2)C(C(=O)NC2CCCC2)c2ccco2)c1N` (configuration not stated) the IC50 was 11.3 µM (inactive).
With `COc1cccc(C(=O)CSc2nnc(-c3cc(OC)c(OC)c(OC)c3)o2)c1` the IC50 was > 79 µM (inactive).
`CCOC(=O)c1c2c3c(cccc3n(C)c1=O)C(=O)c1ccccc1-2` was tested, and the IC50 was 10.1 µM (inactive).
`CCOC(=O)C1=C(COC(=O)/C=C/c2ccc(F)cc2)NC(=O)NC1C` (configuration not stated) was tested, and the IC50 was 5.54 µM.
